In US20020173447A1, “Cytostatic effects of fatty acid synthase inhibition” (priority 2001, published 2002):

What was measured:
RKO-p53 cells = experiment: Apoptosis by merocyanine 540 multiparameter flow cytometry; assay type: cell-based, human
Description: The effect of p53 function on survival after FAS inhibition was investigated by comparing two pairs of isogenic cell lines with wild-type and altered p53 function. RKO cells were rendered p53-mutant by stable transfection with a dominant-negative mutant p53 gene (RKO-p53); the human breast carcinoma cell line MCF7 was rendered p53-deficient by constitutive expression of the human papilloma virus 16 E6 gene (MCF7-E6) (Fan, S., Smith, M. L., Rivet, D. J., 2nd, Duba, D., Zhan, Q., Kohn, K. W., Fornace, A. J., Jr., and PM, O. C., “Disruption of p53 Function Sensitizes Breast Cancer MCF-7 Cells to Cisplatin and Pentoxifylline,” Cancer Research, 55:1649-1654, (1995)).
Cells were exposed to cerulenin or C-75 for the indicated doses and time intervals, then detached from plastic with trypsin for flow cytometry analysis. Apoptosis was measured by multiparameter flow cytometry using a FACStar^Plus flow cytometer equipped with argon and krypton lasers (Becton Dickinson). […] Merocyanine 540-positive cells were identified using 488-nm excitation from an argon laser and a 575-nm DF26 bandpass filter for collection of events with increased red fluorescence. Data were collected and analyzed using CellQuest software (Becton Dickinson). […]

RKO cells = experiment: BrdU pulse/chase cell cycle progression by laser scanning cytometry; assay type: cell-based, human; details: 10 μg/ml, chase 4-24 h
Experimental: A similar experiment measured cell cycle progression by pulse/chase labeling with bromodeoxyuridine (BrdU, FIG. 2). The BrdU-positive S-phase fraction at time zero progresses through the cell cycle at later time points. B. The progress of BrdU pulse-labeled RKO cells through the cell cycle was monitored over 24 h without inhibition of FAS, or during exposure to cerulenin (10 μg/ml) or C-75 (10 μg/ml).
Dual-parameter detection of Bromodeoxyuridine (BrdU) labeling and DNA content was performed using a laser scanning cytometer (Compucyte Corp.). Cell cultures were pulse-labeled for 20 min with 10 μM BrdU, and chased for the indicated times in the absence or presence of drug, then detached from plastic with trypsin, ethanol-fixed and applied to glass slides. Cells were subjected to standard heat-induced epitope retrieval (DAKO) before staining with anti-BrdU antibody (DAKO) and FITC-conjugated goat anti-mouse antibody (CALTAG, DAKO Autostainer™). DNA content was assessed after staining with 0.5% propidium iodide. Data were collected and analyzed using WinCyte software (Compucyte Corp.).
A 20-min exposure of proliferating cells to BrdU labeled the S-phase population at time zero. Chase samples were collected at 4, 8, 16 and 24 h. In control cultures (FIG. 2A), the BrdU-labeled population progressed through G2/M, first reappearing in the G1 population in the 8 h chase sample. […]

[1] = tested on: cyclin A-associated kinase activity; experiment: Immunocomplex-kinase assay after drug exposure of RKO cells, cyclin A; assay type: cell-based, human; details: 10 μg/ml, later time points (16 and 24 h)
Experimental: The effect of FAS inhibitors on the activity of cyclin/cdk complexes in RKO cells was determined in a time course analysis. After RKO cells were exposed to FAS inhibitors for the indicated time periods, cyclin A- and cyclin B 1-associated kinase activities were determined by an immunocomplex-kinase assay.
Five×10^6 RKO cells per 100-mm plate were treated with 10 μg/ml cerulenin or C-75 for the indicated time intervals. The control cells received equivalent amounts of DMSO. After drug treatment, the plates were washed once and lysed with immunoprecipitation (IP) buffer (150 mM Tris, pH 7.4, 150 mM NaCl, 1% Triton X-100, 0.5% NP-40, 1 mM ethyleneglyco-bis-tetraacetic acid, 0.2 mM sodium vanadate, and 0.2 mM phenylmethylsulfonyl fluoride). Protein concentration was measured using the BCA Protein Assay Kit (Pierce). One hundred μg of protein from each sample was incubated at 4° C. for 1 h with 1 μg of primary antibody (anti-human cyclin A rabbit polyclonal antibody or anti-human cyclin B 1 monoclonal antibody, Santa Cruz) and then overnight after addition of Protein A or protein G-Sepharose (Santa Cruz). […] Samples were resolved by electrophoresis through 12% SDS-polyacrylamide gels and quantitated on a Storm 820 system (Molecular Dynamics). […]

[2] = tested on: RKO colon carcinoma cells; experiment: DNA content of treated RKO cells by flow cytometry (cell cycle distribution); assay type: cell-based, human; details: 10 μg/ml; for cell cycle distribution (DNA content), early time points: 5 and 8 h
Experimental: Cells were cultured in DMEM with 10% fetal bovine serum (Hyclone). Cells were screened periodically for mycoplasma contamination (Gen-probe). Cerulenin (Sigma) C-75 and TOFA, dissolved in DMSO, were added from 5 mg/ml stock solutions; the final concentration of DMSO in cultures was at or below 0.2%. Cells were exposed to cerulenin or C-75 for the indicated doses and time intervals, then detached from plastic with trypsin for flow cytometry analysis. DNA content was measured by multiparameter flow cytometry using a FACStar^Plus flow cytometer equipped with argon and krypton lasers (Becton Dickinson).

p53 = experiment: Immunoblot of p53 protein in RKO cells; assay type: cell-based, human; details: 10 μg/ml, 16 and 24 h
Experimental: (§1) Accumulation of p53 protein, and the p53-regulated cdk inhibitor p21WAF1/CIP1, were assayed by immunoblotting in a parallel time course after inhibition of FAS (FIG. 4). Cells were treated with cerulenin (10 μg/ml) (A) or C-75 (10 μg/ml) (B) for the stated exposure times, and analyzed by immunoblotting for p53 and p21 protein content, with actin as an internal control. One million cells per 60-mm plate were treated with 10 μg/ml cerulenin or C-75 in duplicate for the indicated time intervals; control cells received equivalent amounts of DMSO. After drug treatment, cells were lysed with 200 μl Laemmli sample buffer and boiled. Ten μl of each lysate per lane was separated by SDS-PAGE, transferred to nitrocellulose, and exposed to antibodies against p53 (Pab1801, Oncogene Research Products), p21 (6B6, PharMingen) or actin (I-19, Santa Cruz), followed by horseradish peroxidase-conjugated goat anti-mouse or rabbit anti-goat antibody (Pierce), enhanced chemiluminescence (Amersham) and autoradiography.

p21WAF1/CIP1 = experiment: Immunoblot of p21 protein in RKO cells; assay type: cell-based, human; details: 10 μg/ml, 16 and 24 h
Experimental: as §1

MCF7 breast cancer cells = experiment: Alkaline single cell gel electrophoresis (comet assay), MCF7; assay type: cell-based, human; details: 3 h, doses bracketing 75% survival at 24 h
Description: This assay detects DNA strand breaks, and a spectrum of alkali-labile DNA damage at low levels (Singh, N. P., McCoy, M. T., Tice, R. R., and Schneider, E. L., “A simple Technique for Quantitation of Low Levels of DNA Damage in Individual Cells,” Experimental Cell Research, 175:184-191, (1988); Plappert, U., Raddatz, K., Roth, S., and Fliedner, T. M., “DNA-Damage Detection in Man After Radiation Exposure—the Comet Assay—Its Possible Application for Human Biomonitoring,” Stem Cells, 13 Supplement 1:215-222, (1995)).
Cerulenin- or C-75-treated MCF7 breast carcinoma cells were subjected to alkaline single cell gel electrophoresis (comet assay). MCF7 breast cancer cells were treated with cerulenin or C-75 for 3 h at doses bracketing 75% survival at 24 h. All experiments were repeated three times and duplicate slides from each experiment were prepared and scored. […] Neutralized, dehydrated slides were stained with ethidium bromide (2 ng/ml) and comets scored under a Nikon fluorescence microscope (with TRITC filters) coupled to a KOMET 4.0 software (Kinetic Imaging Ltd).
Olive tail moment indicates electrophoretic mobility of DNA induced by DNA damage. […] One hundred consecutive cells were scored from the middle of each slide, and the means calculated. The final results were expressed as the (mean of the individual means)±(standard deviation of the means). […]

fatty acid synthesis = details: cited from earlier work

Structure (SMILES) | effect of pretreatment on FAS inhibitor mediated apoptosis (RKO-p53 cells; RKO-p53 cells, TOFA pretreatment) | apoptosis (MC540) in p53-deficient cells compared to parent line (RKO-p53 cells; RKO-p53 vs parent RKO, 24 h exposure, 5 or 10 μg/ml) | cell cycle progression of BrdU pulse-labeled cells (RKO cells) | kinase activity associated with immunoprecipitated cyclin A complexes, later time points [1] | cell cycle distribution (DNA content), early time points [2] | cell cycle distribution (DNA content), late time points ([2]; 16 and 24 h) | p53 protein level (p53) | p21 protein level (p21WAF1/CIP1) | DNA damage, olive tail moment (MCF7 breast cancer cells) | inhibitory effects on fatty acid synthesis (fatty acid synthesis)
CCCCCCCCCCCCCCOc1ccc(C(=O)O)o1 [TOFA, 5-(tetradecyloxy)-2-furoic acid] | did rescue FAS inhibitor mediated apoptosis | – | – | – | – | – | – | – | – | –
C/C=C/C/C=C/CCC(=O)[C@H]1O[C@H]1C(N)=O [cerulenin, (2R, 3S)-2,3-epoxy-4-oxo-7,10-trans,trans-dodecadienamide] | – | large, dose-dependent increase in apoptosis | substantial delays in cell cycle progression | increased moderately | redistribution of cells into S phase and G2/M | S-phase fraction decreased substantially, with a redistribution of cells into G1 and G2/M | induced accumulation | induced accumulation | Neither cerulenin nor C-75 induced olive tail moments over background values | –
C=C1C(=O)OC(CCCCCCCC)C1C(=O)O (stereo not shown) [C-75] | – | – | exhibited a similar response | increased moderately | This effect was characteristic of both cerulenin and C-75 treatment | – | induced accumulation | induced accumulation | Neither cerulenin nor C-75 induced olive tail moments over background values | comparable to those seen with cerulenin
